Each block holds one molecule with its values, some of them ahead of it.
Experiments:
Format in all cases: physicochemical
[1] = Encapsulation of sodium suramin in ELVAX microspheres
Description: One milliliter of 5% ELVAX (poly(ethylene-vinyl acetate) cross-linked with 5% vinyl acetate) in dichloromethane ("DCM") is mixed with a fixed weight of sub-micron ground sodium suramin. This mixture is injected into 5 ml of 5% Polyvinyl Alcohol ("PVA") in water in a 30 ml flat bottomed test tube. Tubes containing different weights of the drug are then suspended in a multi-sample water bath at 40° for 90 minutes with automated stirring. The mixtures are removed, and microsphere samples taken for size analysis. Tubes are centrifuged at 1000 g for 5 min. The PVA supernatant is removed and saved for analysis (nonencapsulated drug). The microspheres are then washed (vortexed) in 5 ml of water and recentrifuged. The 5 ml wash is saved for analysis (surface bound drug). Microspheres are then wetted in 50 μl of methanol, and vortexed in 1 ml of DCM to dissolve the ELVAX. The microspheres are then warmed to 40° C., and 5 ml of 50° C. water is slowly added with stirring. This procedure results in the immediate evaporation of DCM, thereby causing the release of sodium suramin into the 5 ml of water.
All samples were assayed for drug content by quantification of fluorescence. Briefly, sodium suramin absorbs uv/vis with a lambda max of 312 nm. This absorption is linear in the 0 to 100 μg/ml range in both water and 5% PVA. […] This fluorescence is quantifiable in the 0 to 25 μg/ml range.

[2] = Methotrexate release from PCL discs; settings: high MePEG concentrations
Description: A known weight of a polymer (typically a 2.5 mg pellet) is added to a 15 ml test tube containing 14 ml of a buffer containing 10 mm Na2 HPO4 --NaH2 PO4, 0.145 m NaCl and 0.4 g/l bovine serum albumin. The tubes are capped and tumbled at 37° C. At specific times all the 14 ml of the liquid buffer are removed and replaced with fresh liquid buffer.
The aqueous phase is then removed and the methylene chloride phase is dried under nitrogen. The residue is then dissolved in 60% acetonitrile: 40% water and the solution is injected on to a HPLC system using the following conditions: C8 column (Beckman Instruments USA), mobile phase of 58%:5%:37% acetonitrile: methanol: water at a flow rate of […].
For MTX the collected buffer is applied directly to the HPLC column with no need for extraction in methylene chloride. MTX is analyzed at 302 nm. For Vanadium containing compounds the liquid buffer is analyzed directly using a UV/VIS spectrometer in the 200 to 300 nm range.
Methotrexate ("MTX"; Sigma Chemical Co.) is ground in a pestle and mortar to reduce the particle size to below 5 microns. It is then mixed as a dry powder with polycaprolactone (molecular wt 18000 Birmingham Polymers, Ala. USA). The mixture is heated to 65° C. for 5 minutes and the molten polymer/methotrexate mixture is stirred into a smooth paste for 5 minutes. […]

[3] = Vanadyl sulfate release from PCL
Description: Vanadyl Sulfate (Fisher Scientific) is first ground in a pestle and mortar to reduce the particle size, then dispersed into melted PCL as described above for MTX. It is then taken up into a syringe to solidify and is ready for use.
Drug release was determined essentially as described above in Example 33, except that a 65 mg pellet of a 10% w/w VOSO4 :PCL was suspended in 10 ml of water and the supernatant analyzed for released Vanadyl Sulphate using UV/Vis absorbance spectroscopy of the peak in the 200 to 300 nm range.

- drug encapsulated in 50 mg of ELVAX ([1]; 50 mg ELVAX): 50 µg
- % encapsulation ([1]; ELVAX microspheres): < 1%
SMILES: Cc1ccc(C(=O)Nc2ccc(S(=O)(=O)O)c3cc(S(=O)(=O)O)cc(S(=O)(=O)O)c23)cc1NC(=O)c1cccc(NC(=O)Nc2cccc(C(=O)Nc3cc(C(=O)Nc4ccc(S(=O)(=O)O)c5cc(S(=O)(=O)O)cc(S(=O)(=O)O)c45)ccc3C)c2)c1 [suramin]

SMILES: CN(Cc1cnc2nc(N)nc(N)c2n1)c1ccc(C(=O)N[C@@H](CCC(=O)O)C(=O)O)cc1 [MTX]
- MTX release [2]: substantial amounts of MTX can be released from the polymer

- VOSO4 released ([3]; 6 hours, 65 mg pellet 10% w/w in water): 1 mg
- VOSO4 released ([3]; 2 days, 65 mg pellet 10% w/w in water): 3 mg
- VOSO4 released ([3]; day 6, 65 mg pellet 10% w/w in water): 5 mg
SMILES: O=S(=O)([O-])[O-].[O]=[V+2] [VOSO4, vanadyl sulfate]
